Measured values taken from patent US20230279495A1, “MOLECULAR SIGNATURES OF RADIATION SENSITIVITY IN TUMORS, AND METHODS OF USE THEREOF” (MEMORIAL SLOAN KETTERING CANCER CENTER, priority 2019, published 2023).

Key:
[1] = system: DSB repair pathways (NHEJ, MMEJ, HR) at the AAVS1 locus in U2OS cells; assay: Cas9 assay (DSBR-Seq): NHEJ, MMEJ and HR quantified by sequencing repair events at a site-directed DSB; type: cell-based
Experimental: FIG. 4. A-G. E7 expression shifts DNA double strand break repair pathway choice towards MMEJ. (FIG. 4 A) Schematic of DSBR-Seq Assay. The sequencing reads are classified into NHEJ (<5 bp deletion) in (FIG. 4 B), MMEJ (>5 bp deletion with at least 2 bp MH) in (FIG. 4 C) and HR (substitutions from HR donor) in (FIG. 4 D). The DNApk inhibitor […] was used at 1 μM (micromolar) concentration. (FIG. 4 E) cNHEJ measured as a fraction of mutant reads with deletion sizes less than 5 bp. (FIG. 4 F) E7 expression favors mutant reads with deletion sizes larger than 5 bp representing DSBs repaired by MMEJ. (FIG. 4 G) E7 expression results in lower deletion frequency of small deletions near the double strand break. Results represent the mean of 3 independent experiments+/−the standard error of the mean. * represents a p-vale of <0.05.
To measure DSB repair pathway tradeoffs within an endogenous genomic locus, we used the Cas9 endonuclease to create a site-directed DSB at the AAVS1 locus, chosen because of its characterization as a “safe” genomic locus for integration. Cas9 creates a blunt-ended DSB and repair events at the breaksite can be cataloged in a pool of cells using PCR amplification of a region surrounding the breaksite and massively parallel sequencing to quantify repair outcomes. […] NHEJ is measured with sequencing events with small (1-5) base pair deletions whereas MMEJ is quantified using sequencing events with large deletions and microhomology at the breaksite. All three pathways are thereby quantifiable in a single set of sequencing data in a single pool of cells (FIG. 4 A). […]
To quantify NHEJ, MMEJ and HR at an endogenous breaksite, a Cas9 and gRNA expression plasmid and a donor template oligonucleotide was transfected into U2OS cells with and without E7 expressed. A PCR product surrounding the breaksite was sequenced using Illumina-based NGS technology and the pattern of deletions at the breaksite was analyzed and quantified according to methods described within the Example 2 (SI appendix). […]

[2] = target: Rb (retinoblastoma protein, RB1) (human) (UniProt P06400); assay: cell-based or functional assay
UniProt P06400, sequence (P06400 2-928 limits assumed): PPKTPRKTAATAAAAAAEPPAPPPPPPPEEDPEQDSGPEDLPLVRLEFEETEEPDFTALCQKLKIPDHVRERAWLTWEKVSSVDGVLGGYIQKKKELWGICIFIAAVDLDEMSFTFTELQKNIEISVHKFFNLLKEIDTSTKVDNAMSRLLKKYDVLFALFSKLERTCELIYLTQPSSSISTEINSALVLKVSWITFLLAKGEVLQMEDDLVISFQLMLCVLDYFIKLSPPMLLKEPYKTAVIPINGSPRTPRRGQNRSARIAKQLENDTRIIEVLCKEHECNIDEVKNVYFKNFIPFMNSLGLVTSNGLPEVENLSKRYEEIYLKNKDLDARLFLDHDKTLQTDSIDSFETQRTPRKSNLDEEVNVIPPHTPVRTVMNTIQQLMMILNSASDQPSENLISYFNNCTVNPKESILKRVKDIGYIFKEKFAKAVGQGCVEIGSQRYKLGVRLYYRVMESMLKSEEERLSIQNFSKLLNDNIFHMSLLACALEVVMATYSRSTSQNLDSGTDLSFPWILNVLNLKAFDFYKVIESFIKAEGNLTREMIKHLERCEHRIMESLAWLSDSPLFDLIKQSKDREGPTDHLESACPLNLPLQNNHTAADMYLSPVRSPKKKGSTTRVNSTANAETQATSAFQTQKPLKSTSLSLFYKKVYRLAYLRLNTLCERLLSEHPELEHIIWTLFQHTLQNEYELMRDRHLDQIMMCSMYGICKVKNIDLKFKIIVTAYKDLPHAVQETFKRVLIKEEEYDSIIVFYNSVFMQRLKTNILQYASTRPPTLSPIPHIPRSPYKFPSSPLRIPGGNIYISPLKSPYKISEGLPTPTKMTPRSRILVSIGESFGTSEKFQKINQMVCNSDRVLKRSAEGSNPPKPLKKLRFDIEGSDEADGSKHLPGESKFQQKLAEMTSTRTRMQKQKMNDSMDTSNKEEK

Row | Compound | small deletions (1-5 base pairs), reflective of NHEJ ([1]; inhibitor at 1 μM (FIG. 4 B)) | larger deletions (>5 bp) with microhomology (≥2 bp) (MMEJ) ([1]; inhibitor at 1 μM (FIG. 4 C)) | HR (substitutions from HR donor) ([1]; inhibitor at 1 μM (FIG. 4 D)) | MMEJ activity (percentage of GFP positive cells, U2OS EJ2-GFP reporter, against empty vector) [2] [%] | decrease in NHEJ activity (percentage of GFP positive cells, U2OS EJ5-GFP reporter, against empty vector) [2] [%]
1 | O=c1cc(N2CCOCC2)oc2c(-c3cccc4c3sc3ccccc34)cccc12 [Nu7441] | decrease | increase | increase |  | 
2 | HPV16 E7 oncoprotein (from UniProt P03129 1-98) |  |  |  | 42 | 31
